From patent publication US9120812B2, “Pyrimidooxazocine derivatives as mTOR-inhibitors” (SANOFI, priority 2012, dated 2015)
pIC50: −log10 of the molar value.

What was measured:
[1] = target: mTOR (human recombinant aa mTOR 1360-2549) (Homo sapiens (Human), UniProt P42345); experiment: mTOR enzymatic test by TR-FRET (phosphorylation of GFP-4EBP1); type: biochemical
Summary of the method: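 TR-FRET detection of GFP-4EBP1 phosphorylation by a terbium-labelled anti-phospho-Thr46 antibody. Kinase reaction ran 30 min at room temperature, was quenched with EDTA (10 mM final) plus Tb-antibody (2 nM final) and left 60 min. Emission at 520 and 490 nm after 340 nm excitation, reported as the 520/490 ratio.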

[2] = target: PI3Kα (p110α/p85α) (Homo sapiens (Human), UniProt P42336); experiment: PI3Kα enzymatic test by measuring the consumption of ATP; type: biochemical
Summary of the method: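 p110α/p85α (1.7 μg/ml) with 50 μM PIP2 and 2 μM ATP in pH 7.5 Tris buffer with EGTA, MgCl2, Chaps, DTT; reaction 90 min. Remaining ATP measured by luciferin/luciferase luminescence; IC50 from threefold serial dilutions spanning at least 10 000-fold.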

[3] = tested on: U87MG tumour cells; experiment: Test of in vitro proliferation of U87MG tumour cells; type: cell-based; conditions: Homo sapiens, U-87 MG, 72 h, U87MG cells, 72 hours; read-out: U87 Cell Proliferation IC50
Procedure: Model 4: Test of in vitro Proliferation of U87MG Tumour Cells.
The cell growth is determined with the reagent CellTiter 96 AQueous One Solution Cell Proliferation Assay from Promega (Cat. No. G3581).

[4] = tested on: Akt-pS473 in U87MG cells; conditions: Homo sapiens, U-87 MG, read-out: U87 Akt-pS473 % Inhibition or IC50, nM (IC50), U87MG cells

PI3Kα (p110α/p85α), sequence (P42336 whole entry): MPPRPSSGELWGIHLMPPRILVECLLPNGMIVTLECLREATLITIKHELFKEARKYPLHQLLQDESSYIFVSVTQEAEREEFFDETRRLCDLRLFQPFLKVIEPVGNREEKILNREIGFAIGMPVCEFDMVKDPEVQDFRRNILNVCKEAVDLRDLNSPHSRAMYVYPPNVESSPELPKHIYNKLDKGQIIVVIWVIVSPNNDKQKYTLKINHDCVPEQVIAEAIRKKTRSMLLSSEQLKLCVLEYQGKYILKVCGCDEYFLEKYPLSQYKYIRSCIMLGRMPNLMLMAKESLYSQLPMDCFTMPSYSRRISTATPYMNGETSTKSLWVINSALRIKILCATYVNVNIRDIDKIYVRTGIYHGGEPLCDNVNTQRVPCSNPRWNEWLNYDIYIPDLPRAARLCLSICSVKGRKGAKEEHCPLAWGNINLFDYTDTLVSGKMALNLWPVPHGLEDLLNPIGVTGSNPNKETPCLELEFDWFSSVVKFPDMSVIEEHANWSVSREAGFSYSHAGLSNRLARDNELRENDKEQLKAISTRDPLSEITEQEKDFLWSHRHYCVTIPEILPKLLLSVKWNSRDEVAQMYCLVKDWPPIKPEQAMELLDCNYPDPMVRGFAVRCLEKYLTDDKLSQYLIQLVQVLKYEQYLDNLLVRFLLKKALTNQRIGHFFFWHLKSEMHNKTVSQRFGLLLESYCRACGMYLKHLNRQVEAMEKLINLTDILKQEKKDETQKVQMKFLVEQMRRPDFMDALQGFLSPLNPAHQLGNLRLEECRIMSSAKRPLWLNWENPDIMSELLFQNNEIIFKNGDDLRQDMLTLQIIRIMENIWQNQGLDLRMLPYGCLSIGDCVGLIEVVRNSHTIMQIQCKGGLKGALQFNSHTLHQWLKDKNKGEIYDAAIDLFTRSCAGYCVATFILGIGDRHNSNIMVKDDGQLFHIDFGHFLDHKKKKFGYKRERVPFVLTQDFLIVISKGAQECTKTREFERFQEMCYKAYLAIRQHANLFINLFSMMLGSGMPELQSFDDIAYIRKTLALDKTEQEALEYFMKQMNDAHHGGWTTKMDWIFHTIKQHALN
PI3Kα (p110α/p85α), sequence (P27986 whole entry partner): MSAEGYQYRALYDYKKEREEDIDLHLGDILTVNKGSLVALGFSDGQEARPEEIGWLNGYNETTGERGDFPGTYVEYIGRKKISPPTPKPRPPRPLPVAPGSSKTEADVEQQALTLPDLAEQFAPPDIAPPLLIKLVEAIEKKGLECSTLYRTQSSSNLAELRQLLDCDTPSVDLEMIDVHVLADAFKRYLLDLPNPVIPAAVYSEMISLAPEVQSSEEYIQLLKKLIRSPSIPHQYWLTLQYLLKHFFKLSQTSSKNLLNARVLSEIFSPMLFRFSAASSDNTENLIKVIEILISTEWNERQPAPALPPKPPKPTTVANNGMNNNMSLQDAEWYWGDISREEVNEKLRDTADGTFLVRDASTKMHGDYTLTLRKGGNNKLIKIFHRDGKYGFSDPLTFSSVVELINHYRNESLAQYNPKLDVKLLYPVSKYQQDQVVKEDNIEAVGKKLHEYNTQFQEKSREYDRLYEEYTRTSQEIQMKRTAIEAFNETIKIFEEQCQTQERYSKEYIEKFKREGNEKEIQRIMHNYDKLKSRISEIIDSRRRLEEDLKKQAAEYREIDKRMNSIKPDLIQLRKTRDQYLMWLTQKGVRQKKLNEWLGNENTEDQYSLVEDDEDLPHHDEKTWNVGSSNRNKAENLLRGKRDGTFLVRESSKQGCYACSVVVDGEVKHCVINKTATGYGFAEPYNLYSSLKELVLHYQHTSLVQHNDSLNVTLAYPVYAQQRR
mTOR (human recombinant aa mTOR 1360-2549), sequence (P42345 1360-2549): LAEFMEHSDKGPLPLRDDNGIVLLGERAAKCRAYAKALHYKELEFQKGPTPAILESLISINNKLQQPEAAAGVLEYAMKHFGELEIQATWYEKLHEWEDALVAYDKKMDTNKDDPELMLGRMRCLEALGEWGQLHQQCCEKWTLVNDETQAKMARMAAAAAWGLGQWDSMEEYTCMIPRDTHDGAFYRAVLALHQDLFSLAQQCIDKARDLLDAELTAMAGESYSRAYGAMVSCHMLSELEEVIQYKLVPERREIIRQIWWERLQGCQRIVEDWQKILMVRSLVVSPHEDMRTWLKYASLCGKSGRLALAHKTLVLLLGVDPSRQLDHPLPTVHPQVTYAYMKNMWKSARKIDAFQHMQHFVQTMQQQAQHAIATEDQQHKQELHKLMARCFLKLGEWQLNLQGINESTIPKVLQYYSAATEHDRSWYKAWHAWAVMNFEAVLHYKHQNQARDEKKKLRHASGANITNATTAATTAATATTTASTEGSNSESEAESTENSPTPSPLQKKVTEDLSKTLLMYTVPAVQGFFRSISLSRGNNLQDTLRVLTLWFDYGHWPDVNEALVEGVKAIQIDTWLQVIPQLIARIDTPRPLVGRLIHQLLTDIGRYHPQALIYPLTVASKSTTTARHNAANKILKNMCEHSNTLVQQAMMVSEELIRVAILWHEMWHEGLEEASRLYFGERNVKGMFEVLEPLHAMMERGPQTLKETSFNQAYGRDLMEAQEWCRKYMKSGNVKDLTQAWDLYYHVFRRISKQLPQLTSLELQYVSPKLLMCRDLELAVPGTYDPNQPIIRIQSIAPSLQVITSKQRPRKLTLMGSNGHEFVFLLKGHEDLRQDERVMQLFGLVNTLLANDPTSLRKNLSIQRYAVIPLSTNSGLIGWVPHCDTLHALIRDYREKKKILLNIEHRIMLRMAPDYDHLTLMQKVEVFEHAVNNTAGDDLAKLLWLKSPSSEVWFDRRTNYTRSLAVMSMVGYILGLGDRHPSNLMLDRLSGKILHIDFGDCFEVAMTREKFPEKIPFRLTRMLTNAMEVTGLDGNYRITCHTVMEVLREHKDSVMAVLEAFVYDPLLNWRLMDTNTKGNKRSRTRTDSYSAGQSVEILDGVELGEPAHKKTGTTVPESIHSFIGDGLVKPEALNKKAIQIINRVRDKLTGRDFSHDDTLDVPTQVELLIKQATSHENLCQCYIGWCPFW

Row | SMILES | pIC50 [1] | PI3Ka IC50 [2] | pIC50 [3] | IC50 [4]
1 | CCN1CC(C)(C)Oc2nc(N3CCOC[C@@H]3C)nc(-c3ccc(NC(=O)Nc4ccc(N5CC6CCC(C5)O6)nc4)c(F)c3)c2C1=O [Example 258, 1-{4-[6-Ethyl-8,8-dimethyl-2-((S)-3-methylmorpholin-4-yl)-5-oxo-5,6,7,8-tetrahydro-9-oxa-1,3,6-triazabenzocyclohepten-4-yl]-2-fluorophenyl}-3-[6-(8-oxa-3-azabicyclo[3.2.1]oct-3-yl)pyridin-3-yl]urea] | 7.28 | 2940 nM | 6.90 | 20 nM
2 | CCN1CC(C)(C)Oc2nc(N3CC4CCC(C3)O4)nc(-c3ccc(NC(=O)Nc4ccc(C(F)(F)F)nc4)c(F)c3)c2C1=O [Example 230, 1-{4-[6-Ethyl-8,8-dimethyl-2-(8-oxa-3-azabicyclo[3.2.1]oct-3-yl)-5-oxo-5,6,7,8-tetrahydro-9-oxa-1,3,6-triazabenzocyclohepten-4-yl]-2-fluorophenyl}-3-(6-trifluoromethylpyridin-3-yl)urea] | 7.11 | >10000 nM | 7.24 | 18 nM
3 | COc1ccc(NC(=O)Nc2ccc(-c3nc(N4CC5CCC(C4)O5)nc4c3C(=O)N(C)CC(C)(C)O4)cc2)nc1 [Example 54, 1-(5-Methoxypyridin-2-yl)-3-{4-[6,8,8-trimethyl-2-(8-oxa-3-azabicyclo[3.2.1]oct-3-yl)-5-oxo-5,6,7,8-tetrahydro-9-oxa-1,3,6-triazabenzocyclohepten-4-yl]phenyl}urea] | 7.49 | 3000 nM | 6.79 | 41 nM
4 | CCN1CC(C)(C)Oc2nc(N3CCOC[C@@H]3C)nc(-c3ccc(NC(=O)Nc4cn(C)cn4)c(F)c3)c2C1=O [Example 182, 1-{4-[6-Ethyl-8,8-dimethyl-2-((S)-3-methylmorpholin-4-yl)-5-oxo-5,6,7,8-tetrahydro-9-oxa-1,3,6-triazabenzocyclohepten-4-yl]-2-fluorophenyl}-3-(1-methyl-1H-imidazol-4-yl)urea] | 7.59 | 159 nM | 5.53 | 407 nM
5 | CCN1CC(C)(C)Oc2nc(N3CC4CCC(C3)O4)nc(-c3ccc(Nc4nc5ccccc5[nH]4)cc3)c2C1=O [Example 118, 4-[4-(1H-Benzimidazol-2-ylamino)phenyl]-6-ethyl-8,8-dimethyl-2-(8-oxa-3-azabicyclo[3.2.1]oct-3-yl)-7,8-dihydro-6H-9-oxa-1,3,6-triazabenzocyclohepten-5-one] | 7.24 | 5040 nM | 6.63 | 32 nM
6 | CCN1CC(C)(C)Oc2nc(N3CCOC[C@@H]3C)nc(-c3ccc(NC(=O)NCC(F)(F)F)c(F)c3)c2C1=O [Example 149, 1-{4-[6-Ethyl-8,8-dimethyl-2-((S)-3-methylmorpholin-4-yl)-5-oxo-5,6,7,8-tetrahydro-9-oxa-1,3,6-triazabenzocyclohepten-4-yl]-2-fluorophenyl}-3-(2,2,2-trifluoroethyl)urea] | 6.95 | >10000 nM | 6.07 | 154 nM
7 | CCN1CC(C)(C)Oc2nc(N3CC4CCC(C3)O4)nc(-c3ccc(NC(=O)Nc4ccc(N5CCN(C)CC5)cc4)c(F)c3)c2C1=O [Example 13, 1-{4-[6-ethyl-8,8-dimethyl-2-(8-oxa-3-azabicyclo[3.2.1]oct-3-yl)-5-oxo-5,6,7,8-tetrahydro-9-oxa-1,3,6-triazabenzocyclohepten-4-yl]-2-fluorophenyl}-3-[4-(4-methylpiperazin-1-yl)phenyl]urea] | 6.88 | 6470 nM | 7.49 | 13 nM
8 | CCNC(=O)Nc1ccc(-c2nc(N3CC4CCC(C3)O4)nc3c2C(=O)N(C[C@@H]2CCCN2)CC(C)(C)O3)cc1F [Example 4, 1-{4-[8,8-Dimethyl-2-(8-oxa-3-azabicyclo[3.2.1]oct-3-yl)-5-oxo-6-(S)-1-pyrrolidin-2-ylmethyl-5,6,7,8-tetrahydro-9-oxa-1,3,6-triazabenzocyclohepten-4-yl]-2-fluorophenyl}-3-ethylurea] | 6.14 | >10000 nM | < 5.00 | > 3000 nM
9 | C[C@@H](CO)OC(=O)Nc1ccc(-c2nc(N3CC4CCC(C3)O4)nc3c2C(=O)N(C)CC(C)(C)O3)cc1 [Example 238, {4-[6,8,8-Trimethyl-2-(8-oxa-3-azabicyclo[3.2.1]oct-3-yl)-5-oxo-5,6,7,8-tetrahydro-9-oxa-1,3,6-triazabenzocyclohepten-4-yl]phenyl}carbamic acid (S)-2-hydroxy-1-methylethyl ester] | 6.17 | >10000 nM | 5.77 | > 1000 nM
10 | CCN1CC(C)(C)Oc2nc(N3CC4CCC(C3)O4)nc(-c3ccc(NC(=O)Nc4ccncc4)c(F)c3)c2C1=O [Example 52, 1-{4-[6-Ethyl-8,8-dimethyl-2-(8-oxa-3-azabicyclo[3.2.1]oct-3-yl)-5-oxo-5,6,7,8-tetrahydro-9-oxa-1,3,6-triazabenzocyclohepten-4-yl]-2-fluorophenyl}-3-pyridin-4-ylurea] | 7.74 | 1710 nM | 7.54 | 16 nM
11 | CCN1CC(C)(C)Oc2nc(N3CC4CCC(C3)O4)nc(-c3ccc(NC(=O)Nc4ccc(N5CC6CCC(C5)O6)cn4)cc3)c2C1=O [Example 251, 1-{4-[6-Ethyl-8,8-dimethyl-2-(8-oxa-3-azabicyclo[3.2.1]oct-3-yl)-5-oxo-5,6,7,8-tetrahydro-9-oxa-1,3,6-triazabenzocyclohepten-4-yl]phenyl}-3-[5-(8-oxa-3-azabicyclo[3.2.1]oct-3-yl)pyridin-2-yl]urea] | 7.19 | >10000 nM | 6.47 | 80 nM
12 | CCN1CC(C)(C)Oc2nc(N3CCOC[C@@H]3C)nc(-c3ccc(NC(=O)Nc4ccc(N5CCN(C)CC5)nc4)c(F)c3)c2C1=O [Example 171, 1-{4-[6-Ethyl-8,8-dimethyl-2-((S)-3-methylmorpholin-4-yl)-5-oxo-5,6,7,8-tetrahydro-9-oxa-1,3,6-triazabenzocyclohepten-4-yl]-2-fluorophenyl}-3-[6-(4-methylpiperazin-1-yl)pyridin-3-yl]urea] | 7.43 | 308 nM | 7.04 | 41 nM
13 | CCN1CC(C)(C)Oc2nc(N3CCOC[C@@H]3C)nc(-c3ccc(NC(=O)Nc4cc(OC)ccn4)cc3F)c2C1=O [Example 242, 1-{4-[6-Ethyl-8,8-dimethyl-2-((S)-3-methylmorpholin-4-yl)-5-oxo-5,6,7,8-tetrahydro-9-oxa-1,3,6-triazabenzocyclohepten-4-yl]-3-fluorophenyl}-3-(4-methoxypyridin-2-yl)urea] | 7.05 | >10000 nM | 5.64 | 770 nM
14 | CCN1CC(C)(C)Oc2nc(N3CCOC[C@@H]3C)nc(-c3ccc(NC(=O)Nc4ccc(C)cn4)cc3)c2C1=O [Example 168, 1-{4-[6-Ethyl-8,8-dimethyl-2-((S)-3-methylmorpholin-4-yl)-5-oxo-5,6,7,8-tetrahydro-9-oxa-1,3,6-triazabenzocyclohepten-4-yl]phenyl}-3-(5-methylpyridin-2-yl)urea] | 7.74 | 1385 nM | 6.64 | 48 nM
15 | CCN1CC(C)(C)Oc2nc(N3CCOC[C@@H]3C)nc(-c3ccc(NC(=O)Nc4cc(C)nc(C)n4)cc3)c2C1=O [Example 91, 1-(2,6-Dimethylpyrimidin-4-yl)-3-{4-[6-ethyl-8,8-dimethyl-2-((S)-3-methylmorpholin-4-yl)-5-oxo-5,6,7,8-tetrahydro-9-oxa-1,3,6-triazabenzocyclohepten-4-yl]phenyl}urea] | 7.28 | 4640 nM | 6.39 | 47 nM
16 | CCN1CC(C)(C)Oc2nc(N3CC4CCC(C3)O4)nc(-c3ccc(NC(=O)Nc4cccnc4)cc3)c2C1=O [Example 112, 1-{4-[6-Ethyl-8,8-dimethyl-2-(8-oxa-3-azabicyclo[3.2.1]oct-3-yl)-5-oxo-5,6,7,8-tetrahydro-9-oxa-1,3,6-triazabenzocyclohepten-4-yl]phenyl}-3-pyridin-3-ylurea] | 7.70 | 2660 nM | 6.81 | 24 nM
17 | CCN1CC(C)(C)Oc2nc(N3CCOC[C@@H]3C)nc(-c3ccc(NC(=O)Nc4ccccn4)cc3)c2C1=O [Example 221, 1-{4-[6-Ethyl-8,8-dimethyl-2-((S)-3-methylmorpholin-4-yl)-5-oxo-5,6,7,8-tetrahydro-9-oxa-1,3,6-triazabenzocyclohepten-4-yl]phenyl}-3-pyridin-2-ylurea] | 7.89 | 372 nM | 6.86 | 11 nM
18 | CCN1CC(C)(C)Oc2nc(N3CC4CCC(C3)O4)nc(-c3ccc(NC(=O)NCC4CCOCC4)c(F)c3)c2C1=O [Example 134, 1-{4-[6-Ethyl-8,8-dimethyl-2-(8-oxa-3-azabicyclo[3.2.1]oct-3-yl)-5-oxo-5,6,7,8-tetrahydro-9-oxa-1,3,6-triazabenzocyclohepten-4-yl]-2-fluorophenyl}-3-(tetrahydropyran-4-ylmethyl)urea] | 5.50 | >10000 nM | < 5.00 | > 3000 nM
